{"source": "patent US12465607B2", "about": "“ALK inhibitors for treatment of ALK-negative cancer and plasma cell-mediated diseases” (UNIVERSITETET I OSLO, priority 2019, dated 2025)", "key": {"[1]": {"system": "human L363-BTZ (bortezomib-resistant) myeloma cells", "assay": "Intrafemoral L363-BTZ luciferase xenograft in NSG mice", "type": "in vivo", "conditions": "7 days treatment from day 10; crizotinib 50 mg/kg orally daily; bortezomib 1 mg/kg i.v. twice", "method": "In this figure, immunocompromised NSG mice were intrafemorally injected with human L363-BTZ (bortezomib-resistant) myeloma cells. The cells were equipped with luciferase for in vivo monitoring of disease progression. After 10 days, mice were treated with bortezomib i.v. twice over a 7 day period and with crizotinib orally every day over the 7 day period. The images on the left show examples of tumour load in the different groups at days 4 and 7 of treatment (days 14 and 17 post tumour inoculation), and the graph on the right depicts the average luciferase signal for each mouse in each cohort (n=4) normalised to day 0 of the treatment (day 10 post tumour inoculation). Statistical significance between the groups was assessed with two-way ANOVA and between the time-points using one-way ANOVA with Tukey post-test.\nNSG (NOD-scid IL2Rgamma^null) mice were obtained from The Jackson Laboratory (No. 005557, CA, USA) and kept in isolated ventilated cages with food ad libitum. Age matched (6-8 weeks old) mice were injected with 0.5×10^5 L363-BTZ_Luc+_TdTomato+ multiple myeloma cells (equipped with luciferase vector for monitoring, obtained from Addgene: #72486) into the right femur. Tumour growth was monitored twice over the week following luciferin injection (150 mg/kg, obtained from BioVision, CA, USA). […]"}, "CLL cells": {"system": "CLL cells", "assay": "Viability of activated CLL cells from patients, CellTiter-Glo 72 h (IC50, DSS)", "type": "cell-based, human", "conditions": "for IC50: Homo sapiens, CLL cell", "method": "CLL cells from patients were stimulated by adherent murine L cells expressing CD40L, BAFF and April for 24 h. The L cells were then removed by immuno-magnetic separation. Washed CLL cells were plated into 384-well plate format (10,000 cells/well) and tested against crizotinib at 5 concentrations in 10-fold dilutions (plates dispensed by an Echo acoustic dispenser, LabCyte Inc., San Jose, CA, USA). The plate was incubated in a humidified environment at 37° C. and 5% CO2. Cell viability was determined after 72 h using the CellTiter-Glo (Promega, Madison, WI, USA) ATP assay according to the manufacturer's instructions and using an Envision 2102 Multilabel reader (PerkinElmer, Shelton, CT, USA). Relative percentage cell viability was calculated by normalising luminescence units for each well to negative (DMSO 0.1%) and positive (100 μM BzCl) control wells. Curve fitting was conducted to obtain IC50 values.\nQuantitative scoring of differential drug sensitivity for individual drugs was calculated as drug sensitivity scores (DSS values, Yadav et al., Scientific Reports 4: 5193, 2014). DSS values were calculated for integrated multiple dose-response relationships in high-throughput compound testing as shown."}, "[2]": {"system": "B-cell blasts (plasma blasts/cells)", "assay": "Viability of in vitro-generated B-cell blasts (plasma blasts/cells), CellTiterGlo 72 h", "type": "cell-based", "conditions": "Homo sapiens, day 3 B-cell blasts from 5 donors", "method": "CD19^+ B-cells from 5 blood bank donors were stimulated by adherent murine L cells expressing CD40L, BAFF and April for 3 days to make B-cell blasts (plasma blasts/cells). plasma blasts/cells were tested for sensitivity to crizotinib for 72 h (CellTiterGlo).\nCD19^+ B-cells from 5 blood bank donors were stimulated by adherent murine L cells expressing CD40L, BAFF and April for 3 days to make B-cell blasts (plasma blasts/cells). Washed plasma blasts/cells were detached and plated into 384 well format (10,000 cells/well) and tested against crizotinib at 6 concentrations in 10-fold dilutions covering a 10^−3-10 μM concentration range. Cell viability was determined after 72 h using the CellTiterGlo. Relative percentage cell viability was calculated by normalising luminescence units for each well to negative controls (DMSO 0.1%) and positive control wells (100 μM BzCl) and curve-fitting conducted to obtain the IC50."}, "plasma cells": {"system": "plasma cells", "assay": "Viability of in vitro-generated IRF4/BLIMP1 double positive end stage plasma cells", "type": "cell-based", "conditions": "Homo sapiens, B-cell, 120 h; B-cells stimulated 5 days, inhibitor day 5-7", "description": "Negatively selected normal B-cells from blood bank donors were stimulated with sCD40L, IL-21, IL-4 for 5 days. This protocol allows generation of 10-20% end differentiated plasma cells that express IRF4 and BLIMP1. From day 5-7, cells were exposed to titred crizotinib in A, or ceritinib in B.\nIn A and B, IRF4 vs BLIMP1 in gated CD19^+ B cells is shown. IRF4 and BLIMP1 double positive cells represent end stage plasma cells. Such plasma cells are gated (blue elliptic region) and percent plasma cells are shown. The conditions without inhibitor (0) and with linear Alk-inhibitor (crizotinib, A; ceritinib, B) are shown for concentrations 0.01 μM, 0.1 μM, 1 μM, 10 μM and 100 μM."}, "L363wt plasma cell lines": {"system": "L363wt plasma cell lines", "assay": "Intrafemoral Luciferase+ L363wt plasma cell line xenograft in NSG mice, IVIS imaging", "type": "in vivo", "conditions": "50 mg/kg, orally, daily, 7 days", "method": "Luciferase^+ L363wt plasma cell lines were injected intrafemorally into immunocompromised NSG mice. After 10 days, mice were treated with crizotinib (50 mg/kg, orally, daily) every day for 7 days.\nMice were imaged on an IVIS optical imager on days 10, 14 and 17. Ventral aspects of 3 (of 4) mice are shown. Mice received vehicle (top) or crizotinib (bottom)."}, "[3]": {"system": "Hepatocellular carcinoma cells (HepG2)", "assay": "Apoptosis (cleaved caspase 3 immunoblot) in HepG2 cells with doxorubicin", "type": "cell-based", "conditions": "1 μM crizotinib with 1, 2 and 5 μM doxorubicin, 24 h", "method": "In B, Hepatocellular carcinoma cells (HepG2) were treated with DMSO (untreated) or with increasing concentrations (1, 2 and 5 μM) of doxorubicin for 24 h and apoptosis was assessed by immunoblotting for cleaved caspase 3. […] Cells were also treated with the same concentrations of doxorubicin in the presence of 1 μM crizotinib for 24 h.\nCells were washed twice with PBS and collected in lysis buffer (50 mM Tris-HCl, pH7.4; 1 mM EDTA, 100 mM NaCl, 0.1% SDS and 1% NP-40) supplemented with proteinase and phosphatase inhibitor (Pierce Protease and Phosphatase Inhibitor Mini Tablets, EDTA-free). Lysates were incubated on ice for 10 minutes followed by clearing centrifugation at 20,000×g at 4° C. for 10 min. Supernatants were transferred into fresh tubes and reducing loading buffer was added. Lysates were subjected to SDS-PAGE and transferred onto a nitrocellulose membrane using semi-dry transfer. The membrane was blocked (in ROTI buffer (Roth) or 5% milk in PBS with 0.1% tween) and probed with the appropriate primary antibodies. Subsequently membranes were incubated with horseradish peroxidase-conjugated secondary antibody. Immunoblots were developed using a chemiluminescence reagent (ECL clarity, BioRad) and imaged using ChemiDoc (BioRad)."}, "[4]": {"conditions": "CLL cells from 21 patients, 72 h"}}, "note": "Where two headings read alike, the source gives them in different places."}
{"compound": "C[C@@H](Oc1cc(-c2cnn(C3CCNCC3)c2)cnc1N)c1c(Cl)ccc(F)c1Cl", "note": "[crizotinib, 3-[(1R)-1-(2,6-dichloro-3-fluorophenyl)ethoxy]-5-(1-piperidin-4-ylpyrazol-4-yl)pyridin-2-amine]", "values": [{"measurement": "tumour burden (luciferase signal)", "setting": "[1]", "result": "reduction in tumour burden"}, {"measurement": "share of patients with CLL cells highly sensitive by drug sensitivity score (DSS)", "setting": "CLL cells; 21 patients", "result": "a third"}, {"measurement": "patients with susceptible CLL cells, cut-off DSS=10", "setting": "CLL cells; CLL cells from 12 new patients", "result": "10/12"}, {"measurement": "patient samples with CLL cells sensitive", "setting": "CLL cells; [4]", "result": "17 of 21"}, {"measurement": "patient samples with CLL cells sensitive, percent", "setting": "CLL cells; [4]", "result": 81, "unit": "%"}, {"measurement": "IC50", "setting": "CLL cells; 3 patient samples, read-out: IC50, highly sensitive CLL samples", "result": "< 200", "unit": "nM"}, {"measurement": "IC50", "setting": "CLL cells; 3 patient samples, read-out: IC50, supersensitive CLL samples", "result": "< 10", "unit": "nM"}, {"measurement": "IC50", "setting": "CLL cells; 11 patient samples, read-out: IC50, normally sensitive CLL samples", "result": "< 2000", "unit": "nM"}, {"measurement": "patient samples highly sensitive", "setting": "CLL cells; IgVH mutated CLL", "result": "Three out of 15"}, {"measurement": "patient samples with low sensitivity", "setting": "CLL cells; IgVH mutated CLL", "result": "Four of the 15"}, {"measurement": "patient samples highly sensitive", "setting": "CLL cells; IgVH unmutated CLL", "result": "Four of six"}, {"measurement": "patient samples with low sensitivity", "setting": "CLL cells; IgVH unmutated CLL", "result": "None"}, {"measurement": "IC50", "setting": "[2]", "result": "1000 to 1500", "unit": "nM"}, {"measurement": "IC50", "setting": "plasma cells", "result": 800, "unit": "nM"}, {"measurement": "mice with dramatically reduced signals from plasma cells", "setting": "L363wt plasma cell lines", "result": "3 of 4"}, {"measurement": "plasma cell density (luciferase dependent signals)", "setting": "L363wt plasma cell lines", "result": "reduced plasma cell density"}, {"measurement": "sensitisation to apoptosis (cleaved caspase 3)", "setting": "[3]", "result": "sensitised the HepG HCC cells to apoptosis"}]}
